Test results from the NIST ThermoML archive (doi:10.1021/je1002829).
Numbers after ± are expanded uncertainties.

Assay: xn = mol fraction of the nth substance listed
Conditions: for mass density: 101 kPa, Liquid, Pycnometric method

CCCCCC(=O)O [hexanoic acid] + O
Conditions | mass density, 293.15 K [kg/m3] | mass density, 298.15 K [kg/m3] | mass density, 303.15 K [kg/m3] | mass density, 308.15 K [kg/m3] | surface tension liquid-gas, 293.15 K [mN/m] | surface tension liquid-gas, 298.15 K [mN/m] | surface tension liquid-gas, 303.15 K [mN/m] | surface tension liquid-gas, 308.15 K [mN/m]
x1 = 8e-05 | – | – | – | – | 63.26 ± 1.3 | 62.69 ± 1.3 | 62.67 ± 1.3 | 62.16 ± 1.3
x1 = 0.00015 | 998.24 ± 0.34 | 997.08 ± 0.37 | 995.67 ± 0.39 | 994.07 ± 0.41 | – | – | – | –
x1 = 0.00016 | – | – | – | – | 56.6 ± 1.2 | 56.02 ± 1.2 | 56.09 ± 1.2 | 56.02 ± 1.2
x1 = 0.00023 | – | – | – | – | 52.29 ± 1.1 | 51.8 ± 1.1 | 51.81 ± 1.1 | 51.94 ± 1.1
x1 = 0.00032 | – | – | – | – | 48.25 ± 1.1 | 47.98 ± 1.1 | 47.93 ± 1.1 | 48.06 ± 1.1
x1 = 0.00037 | – | – | – | – | 46.55 ± 1.1 | 46.17 ± 1.1 | 45.98 ± 1 | 46.29 ± 1.1
x1 = 0.00043 | 998.28 ± 0.34 | 997.12 ± 0.37 | 995.68 ± 0.4 | 994.07 ± 0.41 | – | – | – | –
x1 = 0.00046 | – | – | – | – | 44.03 ± 1 | 43.54 ± 1 | 43.22 ± 1 | 43.67 ± 1
x1 = 0.00051 | – | – | – | – | 42.83 ± 1 | 42.62 ± 1 | 42.44 ± 0.99 | 42.6 ± 1
x1 = 0.0006 | 998.31 ± 0.34 | 997.14 ± 0.37 | 995.72 ± 0.4 | 994.09 ± 0.42 | – | – | – | –
x1 = 0.00062 | – | – | – | – | 40.57 ± 0.97 | 40.6 ± 0.97 | 40.57 ± 0.97 | 40.45 ± 0.97
x1 = 0.00069 | – | – | – | – | 39.19 ± 0.95 | 39.02 ± 0.95 | 38.98 ± 0.95 | 38.89 ± 0.94
x1 = 0.00077 | – | – | – | – | 37.72 ± 0.93 | 37.36 ± 0.92 | 37.36 ± 0.92 | 37.2 ± 0.92
x1 = 0.00084 | – | – | – | – | 36.64 ± 0.91 | 36.28 ± 0.91 | 36.21 ± 0.91 | 36.07 ± 0.91
x1 = 0.00091 | – | – | – | – | 35.66 ± 0.9 | 35.23 ± 0.89 | 35.04 ± 0.89 | 34.96 ± 0.89
x1 = 0.00106 | 998.36 ± 0.35 | 997.18 ± 0.37 | 995.77 ± 0.4 | 994.1 ± 0.42 | – | – | – | –
x1 = 0.0011 | – | – | – | – | 33.79 ± 0.87 | 33.17 ± 0.86 | 32.82 ± 0.86 | 32.46 ± 0.85
x1 = 0.00115 | – | – | – | – | 33.55 ± 0.87 | 32.94 ± 0.86 | 32.57 ± 0.86 | 32.11 ± 0.85
x1 = 0.00143 | 998.42 ± 0.35 | 997.22 ± 0.37 | 995.77 ± 0.4 | 994.12 ± 0.42 | – | – | – | –
x1 = 0.00148 | 998.43 ± 0.35 | 997.23 ± 0.37 | 995.79 ± 0.4 | 994.12 ± 0.42 | – | – | – | –
x1 = 0.0018 | 998.47 ± 0.35 | 997.25 ± 0.37 | 995.81 ± 0.4 | 994.13 ± 0.42 | – | – | – | –
x1 = 0.00195 | 998.49 ± 0.35 | 997.28 ± 0.37 | 995.82 ± 0.4 | 994.15 ± 0.42 | – | – | – | –
x1 = 0.00205 | 998.5 ± 0.35 | 997.29 ± 0.37 | 995.83 ± 0.4 | 994.14 ± 0.42 | – | – | – | –
x1 = 0.00222 | 998.52 ± 0.35 | 997.29 ± 0.37 | 995.83 ± 0.4 | 994.16 ± 0.42 | – | – | – | –
x1 = 0.00228 | 998.54 ± 0.35 | 997.31 ± 0.37 | 995.84 ± 0.4 | 994.16 ± 0.42 | – | – | – | –
x1 = 0.0025 | 998.56 ± 0.35 | 997.33 ± 0.37 | 995.86 ± 0.4 | 994.18 ± 0.42 | – | – | – | –
x1 = 0.00271 | 998.58 ± 0.35 | 997.35 ± 0.37 | 995.88 ± 0.4 | 994.19 ± 0.42 | – | – | – | –
x1 = 0.00289 | 998.62 ± 0.35 | 997.37 ± 0.37 | 995.89 ± 0.4 | 994.19 ± 0.42 | – | – | – | –
x1 = 0.00305 | 998.63 ± 0.35 | 997.4 ± 0.37 | 995.91 ± 0.4 | 994.21 ± 0.42 | – | – | – | –
x1 = 0.0035 | 998.69 ± 0.35 | 997.43 ± 0.37 | 995.94 ± 0.4 | 994.23 ± 0.42 | – | – | – | –

CCC(=O)O [propanoic acid] + O
Conditions | mass density, 293.15 K [kg/m3] | mass density, 298.15 K [kg/m3] | mass density, 303.15 K [kg/m3] | mass density, 308.15 K [kg/m3] | surface tension liquid-gas, 293.15 K [mN/m] | surface tension liquid-gas, 298.15 K [mN/m] | surface tension liquid-gas, 303.15 K [mN/m] | surface tension liquid-gas, 308.15 K [mN/m]
x1 = 0.00861 | – | – | – | – | 53.75 ± 1.2 | 52.45 ± 1.1 | 52.18 ± 1.1 | 51.48 ± 1.1
x1 = 0.01457 | 1000.94 ± 0.37 | 999.46 ± 0.39 | 997.79 ± 0.4 | 996.38 ± 0.41 | 49.8 ± 1.1 | 49.01 ± 1.1 | 48.47 ± 1.1 | 47.97 ± 1.1
x1 = 0.02075 | – | – | – | – | 46.86 ± 1.1 | 46.29 ± 1.1 | 45.79 ± 1 | 45.31 ± 1
x1 = 0.03268 | 1004.5 ± 0.37 | 1002.95 ± 0.39 | 1001.28 ± 0.44 | 998.86 ± 0.48 | 42.79 ± 1 | 42.3 ± 0.99 | 41.69 ± 0.98 | 41.23 ± 0.98
x1 = 0.0455 | – | – | – | – | 39.75 ± 0.96 | 39.16 ± 0.95 | 38.43 ± 0.94 | 37.89 ± 0.93
x1 = 0.05436 | 1008.59 ± 0.42 | 1006.51 ± 0.43 | 1004.63 ± 0.46 | 1002.08 ± 0.5 | 38.2 ± 0.94 | 37.55 ± 0.93 | 36.83 ± 0.92 | 36.18 ± 0.91
x1 = 0.06602 | – | – | – | – | 36.71 ± 0.91 | 36.04 ± 0.91 | 35.36 ± 0.9 | 34.61 ± 0.89
x1 = 0.0747 | – | – | – | – | 35.93 ± 0.9 | 35.28 ± 0.89 | 34.6 ± 0.89 | 33.85 ± 0.87
x1 = 0.0869 | 1014.63 ± 0.49 | 1011.95 ± 0.5 | 1009.33 ± 0.49 | 1006.91 ± 0.5 | 35.19 ± 0.89 | 34.59 ± 0.88 | 33.85 ± 0.87 | 33.19 ± 0.87
x1 = 0.1019 | 1017.46 ± 0.51 | 1014.23 ± 0.54 | 1011.41 ± 0.51 | 1008.86 ± 0.52 | – | – | – | –
x1 = 0.1095 | – | – | – | – | 34.48 ± 0.88 | 33.94 ± 0.88 | 33.04 ± 0.86 | 32.62 ± 0.86
x1 = 0.128 | 1020.75 ± 0.48 | 1017.92 ± 0.54 | 1014.77 ± 0.56 | 1011.7 ± 0.63 | 34.1 ± 0.88 | 33.59 ± 0.87 | 32.68 ± 0.86 | 32.35 ± 0.85
x1 = 0.1494 | – | – | – | – | 33.68 ± 0.87 | 33.18 ± 0.87 | 32.43 ± 0.85 | 32 ± 0.85
x1 = 0.171 | 1025.1 ± 0.54 | 1021.28 ± 0.63 | 1017.58 ± 0.63 | 1013.89 ± 0.68 | 33.22 ± 0.87 | 32.71 ± 0.86 | 32.27 ± 0.85 | 31.51 ± 0.84
x1 = 0.1823 | – | – | – | – | 32.96 ± 0.86 | 32.45 ± 0.85 | 32.21 ± 0.85 | 31.21 ± 0.84
x1 = 0.1947 | 1025.78 ± 0.59 | 1022.21 ± 0.63 | 1018.26 ± 0.67 | 1014.09 ± 0.7 | – | – | – | –
x1 = 0.2318 | 1026.54 ± 0.64 | 1022.48 ± 0.67 | 1018.39 ± 0.69 | 1014.03 ± 0.73 | – | – | – | –
x1 = 0.2485 | 1026.51 ± 0.68 | 1022.21 ± 0.68 | 1018.12 ± 0.69 | 1013.78 ± 0.72 | – | – | – | –
x1 = 0.2755 | 1026.19 ± 0.69 | 1021.74 ± 0.69 | 1017.72 ± 0.7 | 1013.1 ± 0.74 | – | – | – | –
x1 = 0.3043 | 1025.42 ± 0.68 | 1021.28 ± 0.68 | 1017.05 ± 0.71 | 1012.52 ± 0.75 | – | – | – | –
x1 = 0.333 | 1024.97 ± 0.67 | 1020.74 ± 0.68 | 1016.65 ± 0.74 | 1011.57 ± 0.81 | – | – | – | –
x1 = 0.3701 | 1024.09 ± 0.66 | 1019.95 ± 0.7 | 1015.5 ± 0.77 | 1010.29 ± 0.82 | – | – | – | –
x1 = 0.4001 | 1023.22 ± 0.7 | 1018.88 ± 0.72 | 1014.2 ± 0.76 | 1009.37 ± 0.78 | – | – | – | –
